Assay [1] deals with HIV-1 protease (Human immunodeficiency virus type 1 group M subtype B, UniProt P04585). The experiment in a line: biochemical.
The subject of assay [2] is HIV-1 (strain IIIB). As to the kind of experiment: microbe, parasite or virus in culture. The following applies: Human immunodeficiency virus 1, IIIB, MT4, Table 12; anti-viral potency in MT-4 cells; read-out: IC50. It is filed as cell-based.
The mark [3] stands for this setting: Table 12, HIV-1 protease, read-out: Ki.

Read-outs that look alike come from different tables or passages of the source.

One may read the Ki as the dissociation constant of the complex between target and ligand, obtained from inhibition or displacement. What is called IC50 is the concentration needed to halve the response being measured. For `COc1ccc(S(=O)(=O)N(CC(O)[C@H](Cc2ccccc2)NC(=O)OC2COC3OCCC23)CC(C)(C)CCC(C)=NO)cc1` (stereo partly drawn) [Compound 227, (3R,3aS,6aR)-Hexahydrofuro[2,3-b]furan-3-yl N-((1S,2R)-1-benzyl-3-(2,2-dimethyl-5-hydroxyiminohexyl)[(4-methoxyphenyl)sulfonyl]amino-2-hydroxypropyl)carbamate], the Ki in assay [1] (setting [3]) is under 1 nM. Besides, the IC50 in assay [2] was at most 100 nM.

Take `CNC(=O)CNC(=O)NCCC(C)(C)CN(CC(O)C(Cc1ccccc1)NC(=O)OC1COC2OCCC12)S(=O)(=O)c1ccc(OC)cc1` [Compound 228, (3R,3aS,6aR)hexahydrofuro[2,3-b]furan-3-yl N-(1S,2R)-1-benzyl-2-hydroxy-4-[(4-methoxyphenyl)sulfonyl]-6,6-dimethyl-10,13-dioxo-4,9,11,14-tetraazapentadec-1-ylcarbamate and (3S,3aR,6aS)hexahydrofuro[2,3-b]furan-3-yl N-(1S,2R)-1-benzyl-2-hydroxy-4-[(4-methoxyphenyl)sulfonyl]-6,6-dimethyl-10,13-dioxo-4,9,11,14-tetraazapentadec-1-ylcarbamate]: the inhibitory constant (Ki) in assay [1] (setting [3]) is under 1 nM. The IC50 in assay [2] lay in the range of 100 to 500 nM.

On to `CCOC(=O)NCCCC(C)(C)CN(CC(O)C(Cc1ccccc1)NC(=O)OC1COC2OCCC12)S(=O)(=O)c1ccc(OC)cc1` [Compound 230, (3R,3aS,6aR)hexahydrofuro[2,3-b]furan-3-yl N-((1S,2R)-1-benzyl-3-5-[(ethoxycarbonyl)amino]-2,2-dimethylpentyl[(4-methoxyphenyl)sulfonyl]amino-2-hydroxypropyl)carbamate and (3S,3aR,6aS)hexahydrofuro[2,3-b]furan-3-yl N-((1S,2R)-1-benzyl-3-5-[(ethoxycarbonyl)amino]-2,2-dimethylpentyl[(4-methoxyphenyl)sulfonyl]amino-2-hydroxypropyl)carbamate], for which, in assay [1] (setting [3]), the inhibition constant Ki was under 1 nM. The IC50 in assay [2] was at most 100 nM.

Regarding `COc1ccc(S(=O)(=O)N(CC(O)[C@H](Cc2ccccc2)NC(=O)OC2COC3OCCC23)CC(C)(C)CCOC(N)=O)cc1` (stereo partly drawn) [Compound 235, (3R,3aS,6aR)-Hexahydrofuro[2,3-b]furan-3-yl N-((1S,2R)-1-benzyl-3-(4-carbamoyloxy-2,2-dimethylbutyl)[(4-methoxyphenyl)sulfonyl]amino-2-hydroxypropyl)carbamate], the inhibition constant Ki in assay [1] (setting [3]) was under 1 nM. In addition, the half-maximal inhibitory concentration (IC50) in assay [2] was at most 100 nM.

For `COc1ccc(S(=O)(=O)N(CC(O)C(Cc2ccccc2)NC(=O)OC2COC3OCCC23)CC(C)(C)CCNC(=O)N2CCOCC2)cc1` [Compound 236, (3R,3aS,6aR)hexahydrofuro[2,3-b]furan-3-yl N-((1S,2R)-1-benzyl-3-2,2-dimethyl-4-[(morpholinocarbonyl)amino]butyl[(4-methoxyphenyl)sulfonyl]amino-2-hydroxypropyl)carbamate and (3S,3aR,6aS)hexahydrofuro[2,3-b]furan-3-yl N-((1S,2R)-1-benzyl-3-2,2-dimethyl-4-[(morpholinocarbonyl)amino]butyl[(4-methoxyphenyl)sulfonyl]amino-2-hydroxypropyl)carbamate], the Ki in assay [1] (setting [3]) was under 1 nM. In assay [2], the IC50 is at most 100 nM.

As to `COc1ccc(S(=O)(=O)N(CC(O)C(Cc2ccccc2)NC(=O)OC2COC3OCCC23)CC(C)(C)CCCNC(=O)N2CCOCC2)cc1` [Compound 237, (3R,3aS,6aR)hexahydrofuro[2,3-b]furan-3-yl N-((1S,2R)-1-benzyl-3-2,2-dimethyl-5-[(morpholinocarbonyl)amino]pentyl[(4-methoxyphenyl)sulfonyl]amino-2-hydroxypropyl)carbamate and 3S,3aR,6aS)hexahydrofuro[2,3-b]furan-3-yl N-((1S,2R)-1-benzyl-3-2,2-dimethyl-5-[(morpholinocarbonyl)amino]pentyl[(4-methoxyphenyl)sulfonyl]amino-2-hydroxypropyl)carbamate], the Ki in assay [1] (setting [3]) was under 1 nM. Moreover, the half-maximal inhibitory concentration (IC50) in assay [2] was at most 100 nM.

Turning to `COc1ccc(S(=O)(=O)N(CC(O)C(Cc2ccccc2)NC(=O)OC2COC3OCCC23)CC(C)(C)CCN(C)C)cc1` [Compound 238, (3R,3aS,6aR)hexahydrofuro[2,3-b]furan-3-yl N-((1S,2R)-1-benzyl-3-[4-(dimethylamino)-2,2-dimethylbutyl][(4-methoxyphenyl)sulfonyl]amino-2-hydroxypropyl)carbamate and (3S,3aR,6aS)hexahydrofuro[2,3-b]furan-3-yl N-((1S,2R)-1-benzyl-3-[4-(dimethylamino)-2,2-dimethylbutyl][(4-methoxyphenyl)sulfonyl]amino-2-hydroxypropyl)carbamate]], the inhibitory constant (Ki) in assay [1] (setting [3]) was under 1 nM. Also, the half-maximal inhibitory concentration (IC50) in assay [2] lay in the range of 100 to 500 nM.

Regarding `CC(=O)CCC(C)(C)CN(CC(O)[C@H](Cc1ccccc1)NC(=O)OC1COC2OCCC12)S(=O)(=O)c1ccc2c(c1)OCO2` (stereo partly drawn) [Compound 240, (3R,3aS,6aR)-Hexahydrofuro[2,3-b]furan-3-yl N-((1S,2R)-1-benzyl-3-(2,2-dimethyl-5-oxohexyl)[(3,4-methylenedioxyphenyl)sulfonyl]amino-2-hydroxypropyl)carbamate], the Ki in assay [1] (setting [3]) was under 1 nM. Besides, in assay [2], the IC50 was at most 100 nM.

As to `CNc1cccc(S(=O)(=O)N(C[C@@H](O)[C@H](Cc2ccccc2)NC(=O)O[C@H]2CO[C@H]3OCC[C@H]32)CC(C)(C)CCCCN)c1` [Compound 241, (3R,3aS,6aR)hexahydrofuro[2,3-b]furan-3-yl N-[(1S,2R)-3-((6-amino-2,2-dimethylhexyl)[3-(methylamino)phenyl]sulfonylamino)-1-benzyl-2-hydroxypropyl]carbamate], the inhibitory constant (Ki) in assay [1] (setting [3]) is under 1 nM. The IC50 in assay [2] lay in the range of 100 to 500 nM.

`COc1ccc(S(=O)(=O)N(CC(O)C(Cc2ccccc2)NC(=O)OC2COC3OCCC23)CC(C)(C)CCNC(=O)OC(C)C)cc1` [Compound 242, (3R,3aS,6aR)hexahydrofuro[2,3-b]furan-3-yl N-((1S,2R)-1-benzyl-2-hydroxy-3-4-[(isopropoxycarbonyl)amino]-2,2-dimethylbutyl[(4-methoxyphenyl)sulfonyl]aminopropyl)carbamate and (3S,3aR,6aS)hexahydrofuro[2,3-b]furan-3-yl N-((1S,2R)-1-benzyl-2-hydroxy-3-4-[(isopropoxycarbonyl)amino]-2,2-dimethylbutyl[(4-methoxyphenyl)sulfonyl]aminopropyl)carbamate]: the inhibition constant Ki in assay [1] is under 1 nM. The 50% inhibitory concentration (IC50) in assay [2] was at most 100 nM.

Consider `COc1ccc(S(=O)(=O)N(CC(O)C(Cc2ccccc2)NC(=O)OC2COC3OCCC23)CC(C)(C)CCCNC(=O)OC(C)C)cc1` [Compound 243, (3R,3aS,6aR)hexahydrofuro[2,3-b]furan-3-yl N-((1S,2R)-1-benzyl-2-hydroxy-3-5-[(isopropoxycarbonyl)amino]-2,2-dimethylpentyl[(4-methoxyphenyl)sulfonyl]aminopropyl)carbamate and (3S,3aR,6aS)hexahydrofuro[2,3-b]furan-3-yl N-((1S,2R)-1-benzyl-2-hydroxy-3-5-[(isopropoxycarbonyl)amino]-2,2-dimethylpentyl[(4-methoxyphenyl)sulfonyl]aminopropyl)carbamate], for which the inhibitory constant (Ki) in assay [1] was under 1 nM. Besides, the half-inhibitory concentration (IC50) in assay [2] was at most 100 nM.

As to `CC(C)(CCCCN)CN(CC(O)C(Cc1ccccc1)NC(=O)OC1COC2OCCC12)S(=O)(=O)c1ccc2c(c1)OCO2` [Compound 244, (3R,3aS,6aR)hexahydrofuro[2,3-b]furan-3-yl N-(1S,2R)-3-[(6-amino-2,2-dimethylhexyl)(1,3-benzodioxol-5-ylsulfonyl)amino]-1-benzyl-2-hydroxypropylcarbamate], the inhibition constant (Ki) in assay [1] (setting [3]) is under 1 nM. The half-maximal inhibitory concentration (IC50) in assay [2] was 100 to 500 nM.

With `CC(C)(CCCCN)CN(CC(O)C(Cc1ccccc1)NC(=O)OC1COC2OCCC12)S(=O)(=O)c1ccc2c(c1)OCCO2` [Compound 245, (3R,3aS,6aR)hexahydrofuro[2,3-b]furan-3-yl N-(1S,2R)-3-[(6-amino-2,2-dimethylhexyl)(2,3-dihydro-1,4-benzodioxin-6-ylsulfonyl)amino]-1-benzyl-2-hydroxypropylcarbamate], the Ki in assay [1] (setting [3]) was under 1 nM. In addition, the IC50 in assay [2] was 100 to 500 nM.

On to `CNc1cccc(S(=O)(=O)N(C[C@@H](O)[C@H](Cc2ccccc2)NC(=O)O[C@H]2CO[C@H]3OCC[C@H]32)CC(C)(C)CCCCNC(=O)OC)c1` [Compound 246, (3R,3aS,6aR)hexahydrofuro[2,3-b]furan-3-yl N-[(1S,2R)-1-benzyl-2-hydroxy-3-(6-[(methoxycarbonyl)amino]-2,2-dimethylhexyl[3-(methylamino)phenyl]sulfonylamino)propyl]carbamate], for which the inhibitory constant (Ki) in assay [1] (setting [3]) was under 1 nM. Moreover, the IC50 in assay [2] was at most 100 nM.

Turning to `CNc1cccc(S(=O)(=O)N(C[C@@H](O)[C@H](Cc2ccccc2)NC(=O)O[C@H]2CO[C@H]3OCC[C@H]32)CC(C)(C)CCCCNC(=O)N(C)C)c1` [Compound 247, (3R,3aS,6aR)hexahydrofuro[2,3-b]furan-3-yl N-[(1S,2R)-1-benzyl-3-((6-[(dimethylamino)carbonyl]amino-2,2-dimethylhexyl)[3-(methylamino)phenyl]sulfonylamino)-2-hydroxypropyl]carbamate], in assay [1] (setting [3]), the Ki is under 1 nM. The IC50 in assay [2] is at most 100 nM.

As for `COC(=O)NCCCCC(C)(C)CN(C[C@@H](O)[C@H](Cc1ccccc1)NC(=O)O[C@H]1CO[C@H]2OCC[C@H]21)S(=O)(=O)c1ccc2c(c1)OCO2` [Compound 248, (3R,3aS, 6aR)hexahydrofuro[2,3-b]furan-3-yl N-[(1S,2R)-3-((1,3-benzodioxol-5-ylsulfonyl)6-[(methoxycarbonyl)amino]-2,2-dimethylhexylamino)-1-benzyl-2-hydroxypropyl]carbamate], the Ki in assay [1] (setting [3]) is under 1 nM. Besides, in assay [2], the IC50 is at most 100 nM.

Take `CN(C)C(=O)NCCCCC(C)(C)CN(CC(O)C(Cc1ccccc1)NC(=O)OC1COC2OCCC12)S(=O)(=O)c1ccc2c(c1)OCO2` [Compound 249, (3R,3aS,6aR)hexahydrofuro[2,3-b]furan-3-yl N-(1S,2R)-3-[(1,3-benzodioxol-5-ylsulfonyl)(6-[(dimethylamino)carbonyl]amino-2,2-dimethylhexyl)amino]-1-benzyl-2-hydroxypropylcarbamate]: the inhibitory constant (Ki) in assay [1] (setting [3]) is under 1 nM. Besides, the half-maximal inhibitory concentration (IC50) in assay [2] was at most 100 nM.

For the origin of these results see patent US6617350B2, “Inhibitors of aspartyl protease” (priority 1999, dated 2003).
